This note sets out measurements from patent publication US8003669B2, “Remedy for sleep disturbance” (Mitsubishi Tanabe Pharma Corporation, priority 2002, dated 2011).

Assay [1] deals with rats. Nature of the assay: Antagonistic action of the ORL-1 receptor antagonist on the phase advancement by the ORL-1 receptor agonist. The format is in vivo, rat. Particulars: constant dark, oral.
Assay [2] deals with T1, ORL-1 receptor (Rattus norvegicus, UniProt P35370).
T1 construct: a standard product of the receptor prepared from cerebral cortex of rat; from tissue; host or cells: rat cerebral cortex
As to the kind of experiment: ORL-1 receptor binding test ([3H]-nociceptin). Particulars: receptor prepared from cerebral cortex of rat.

For assay [3], the target named is human ORL-1 receptor (Homo sapiens, UniProt P41146). As to the kind of experiment: Agonist action: inhibition of forskolin-stimulated cAMP elevation in HEK293 cells. The format is cell-based. Particulars: HEK293 cells expressing human ORL-1 receptor, forskolin 1 μmol/L.
Chain of human ORL-1 receptor (P41146 whole entry): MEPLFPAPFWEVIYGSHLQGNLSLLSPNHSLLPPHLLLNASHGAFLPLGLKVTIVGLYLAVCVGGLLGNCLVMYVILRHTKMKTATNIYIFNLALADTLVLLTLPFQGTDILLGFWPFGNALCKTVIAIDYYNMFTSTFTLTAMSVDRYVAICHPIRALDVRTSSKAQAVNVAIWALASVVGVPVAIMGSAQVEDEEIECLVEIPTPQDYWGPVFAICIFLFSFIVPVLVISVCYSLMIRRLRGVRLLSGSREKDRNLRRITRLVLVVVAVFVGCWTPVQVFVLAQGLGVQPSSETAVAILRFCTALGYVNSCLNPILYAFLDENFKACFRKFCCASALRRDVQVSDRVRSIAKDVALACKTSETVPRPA

T1 sequence (P35370 whole entry): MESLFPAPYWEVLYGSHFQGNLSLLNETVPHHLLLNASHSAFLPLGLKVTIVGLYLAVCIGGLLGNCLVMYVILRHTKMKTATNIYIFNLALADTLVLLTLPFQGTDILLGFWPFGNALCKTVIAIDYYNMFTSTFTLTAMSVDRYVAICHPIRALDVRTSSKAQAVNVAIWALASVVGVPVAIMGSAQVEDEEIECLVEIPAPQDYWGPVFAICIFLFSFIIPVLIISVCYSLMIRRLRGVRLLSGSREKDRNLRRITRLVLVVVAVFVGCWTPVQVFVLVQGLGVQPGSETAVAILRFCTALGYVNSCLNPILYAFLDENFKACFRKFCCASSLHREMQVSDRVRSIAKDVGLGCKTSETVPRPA

In the case of `CCc1ccc(OCc2ccccc2C(=O)Nc2ccc3nc(C)cc(N)c3c2)cc1.Cl` [compound D, N-(4-amino-2-methylquinolin-6-yl)-2-(4-ethylphenoxymethyl)benzamide hydrochloride], in assay [1], the “phase shift for the ORL-1 receptor antagonist alone” value was “no phase shift was observed”. For the same molecule, in assay [2] (25° C., 20 minutes, read-out: IC50 value, inhibition of the binding of [3H]-nociceptin), the half-maximal inhibitory concentration (IC50) is 500 nM. In addition, in assay [2] (Ki=IC50/(1+L/Kd), read-out: Ki value, inhibition of the binding of [3H]-nociceptin), the inhibitory constant (Ki) came to 60.6 nM. Also, the “inhibition of cAMP production (ORL-1 receptor agonistic activity)” value in assay [3] is reported as “did not inhibit cAMP production”.

The IC50 is the concentration needed to halve the response being measured. Broadly, the Ki is a measure of affinity in units of concentration, obtained from inhibition or displacement.
